Assay results reported in patent publication US12419865B2 (priority 2018, dated 2025).
Where two headings read alike, the source gives them in different places.

Columns and labels:
LASV-p = assay: microbe, parasite or virus in culture; type: cell-based, Lassa (LASV); conditions: Vesicular stomatitis virus, Vero, read-out: LASV-p EC50
MACV-p = assay: organism not typed; type: cell-based, Machupo (MACV); conditions: Vero, read-out: MACV-p EC50
JUNV-p = assay: organism not typed; type: cell-based, Junin (JUNV); conditions: Vero, read-out: JUNV-p EC50
TCRV-p = assay: organism not typed; type: cell-based; conditions: read-out: TCRV-p EC50
replicative LASV = assay: microbe, parasite or virus in culture; type: cell-based, Lassa Virus; conditions: for EC90: Mammarenavirus lassaense
in vitro = conditions: African green monkey
VSV-p = assay: microbe, parasite or virus in culture; type: cell-based; conditions: Vesicular stomatitis virus, Vero, read-out: VSV-p EC50
[1] = 1 h, pH 7.4
[2] = 1 h, pH 7.4; remark: listed apart in the source
[3] = guinea pig, 1 h, pH 7.4
[4] = test system: native replicating Tacaribe (TCRV) virus; assay: microbe, parasite or virus in culture; type: cell-based; conditions: Mammarenavirus tacaribeense, Vero, 120 h, read-out: TCRV EC50

| SMILES | EC50 (LASV-p) [nM] | EC50 (MACV-p) [nM] | EC50 (JUNV-p) [nM] | EC50 (TCRV-p) [nM] | Sl90 (replicative LASV) | EC90 (replicative LASV; Vero, read-out: VYR Assay EC90) [nM] | EC90 (replicative LASV; read-out: EC90 in the VYR assay format) [nM] | CC50 (in vitro) [nM] | EC50 (TCRV-p; Vero) [nM] | EC50 (VSV-p) [nM] | Percent parent compound remaining at 60 minutes in liver microsomes, Mouse [1] [%] | Percent parent compound remaining at 60 minutes in liver microsomes, Human [2] [%] | Percent parent compound remaining at 60 minutes in liver microsomes, Guinea [3] [%] | EC50 [4] [nM] |
| --- | --- | --- | --- | --- | --- | --- | --- | --- | --- | --- | --- | --- | --- | --- |
| [2H]C([2H])([2H])C([2H])(Oc1ccc(-c2cn3c(-c4ccc(OC(C)(C)C)cc4)cnc3cc2C)cc1)C([2H])([2H])[2H] [Example E30, 3-(4-(tert-butoxy)phenyl)-6-(4-(isopropoxy-d7)phenyl)-7-methylimidazo[1,2-a]pyridine] | 0.39 | 0.09 | 0.09 | 0.2 | >1,510 | < 14 | < 14 | 3800 |  |  |  |  |  |  |
| CC(C)Oc1ccc(-n2nnc3ccc(-c4ccc(C(C)(C)O)cc4)cc32)cc1 [Example C16, 2-(4-(1-(4-isopropoxyphenyl)-1H-benzo[d][1,2,3]triazol-6-yl)phenyl)propan-2-ol] | 3.02 | 1.72 | 0.45 |  |  |  |  | 4120 | 3.67 | > 10000 | 57.4 | 72.3 | 61.9 |  |
| COc1cc2nnn(-c3ccc(OC(C)C)cc3)c2cc1-c1ccc(OC(C)C)cc1 [Example C15, 1,6-bis(4-isopropoxyphenyl)-5-methoxy-1H-benzo[d][1,2,3]triazole] | 23.4 | 7.09 | 3.06 |  |  |  |  | 98400 | 11.4 | > 10000 |  |  |  |  |
| CC(C)Oc1ccc(-n2nnc3ccc(-c4cccc(C(C)(C)O)c4)cc32)cc1 [Example C17, 2-(3-(1-(4-isopropoxyphenyl)-1H-benzo[d][1,2,3]triazol-6-yl)phenyl)propan-2-ol] | 15.8 | > 25 | 12.2 |  |  |  |  | 10500 | > 25 | > 10000 |  |  |  |  |
| CCc1cc2nnn(-c3ccc(OC(C)C)cc3)c2cc1-c1ccc(OC(C)C)cc1 [Example C26, 5-ethyl-1,6-bis(4-isopropoxphenyl)-1H-benzo[d][1,2,3]triazole] | 3.9 | 0.04 | 0.1 |  |  |  |  | 3590 | 5.92 | > 10000 |  |  |  |  |
| CC(C)Oc1ccc(-c2cc3c(cc2C(N)=O)nnn3-c2ccc(OC(C)C)cc2)cc1 [Example C21, 1,6-bis(4-isopropoxyphenyl)-1H-benzo[d][1,2,3]triazole-5-carboxamide] | > 25 | > 25 | > 25 |  |  |  |  |  | > 25 | > 10000 |  |  |  |  |
| CC(C)Oc1ccc(-n2nnc3ccc(-c4cccc(OC(C)C)c4)cc32)cc1 [Example C18, 6-(3-isopropoxyphenyl)-1-(4-isopropoxyphenyl)-1H-benzo[d][1,2,3]triazole] | > 25 | > 25 | > 25 |  |  |  |  |  | > 25 | > 10000 |  |  |  |  |
| C=Cc1cc2nnn(-c3ccc(OC(C)C)cc3)c2cc1-c1ccc(OC(C)C)cc1 [Example C25, 1,6-bis(4-isopropoxyphenyl)-5-vinyl-1H-benzo[d][1,2,3]triazole] | 6.78 | 0.3 | 1.47 |  |  |  |  | 3870 | 8.01 | > 10000 |  |  |  |  |
| CC(C)Oc1ccc(-c2cc3c(cc2CN)nnn3-c2ccc(OC(C)C)cc2)cc1 [Example C22, (1,6-bis(4-isopropoxyphenyl)-1H-benzo[d][1,2,3]triazol-5-yl)methanamine] | > 25 | > 25 | > 25 |  |  |  |  |  | > 25 | > 10000 |  |  |  |  |
| Cc1cc2ncn(-c3ccc(OC(C)C)cc3)c2cc1-c1ccc(C(C)(C)O)cc1 [Example A3, 2-(4-(1-(4-isopropoxyphenyl)-5-methyl-1H-benzo[d]imidazol-6-yl)phenyl)propan-2-ol] | 0.75 | 0.17 | 0.4 | 0.21 |  |  |  | 4500 | 0.24 | > 10000 | 25.4 | 89.9 | 67.6 | 0.87 |
| CC(C)Oc1ccc(-c2cc3c(cc2CO)nnn3-c2ccc(OC(C)C)cc2)cc1 [Example C19, (1,6-bis(4-isopropoxyphenyl)-1H-benzo[d][1,2,3]triazol-5-yl)methanol] | 22.5 | 3.82 | 0.75 |  |  |  |  | 81700 | 8 | > 10000 |  |  |  |  |
| Cc1nc2ncc(-c3ccc(OC(C)C)cc3)n2cc1-c1ccc(OC(C)C)cc1 [Example D27, 3,6-bis(4-isopropoxyphenyl)-7-methylimidazo[1,2-a]pyrimidine] | 0.75 | 0.85 | 0.78 |  |  |  |  | 2180 | 0.2 | > 10000 |  |  |  |  |
| CC(C)Oc1ccc(-c2ccc3nnn(-c4ccc(OC(C)C)cc4)c3c2F)cc1 [Example C12, 7-fluoro-1,6-bis(4-isopropoxyphenyl)-1H-benzo[d][1,2,3]triazole] | 1.31 | 0.55 | 0.15 |  |  |  |  | > 100000 | 15 | > 10000 | 90.3 | >95 | >95 |  |
| Cc1cc2ncc(-c3ccc(C(C)(C)O)cc3)n2cc1-c1ccc(C(C)(C)O)cc1 [Example B9, 2,2′-((7-methylimidazo[1,2-a]pyridine-3,6-diyl)bis(4,1-phenylene))bis(propan-2-ol)] | > 25 | > 25 | > 25 |  |  |  |  |  | 16.1 | > 10000 |  |  |  |  |
| COc1cc2nnn(-c3ccc(O)cc3)c2cc1-c1ccc(O)cc1 [Example C24, 4,4′-(5-methoxy-1H-benzo[d][1,2,3]triazole-1,6-diyl)diphenol] | 4.62 | > 25 | 19 |  |  |  |  | 32200 | 18.4 | > 10000 |  |  |  |  |
| CC(C)Oc1ccc(-c2cc3c(cc2N)nnn3-c2ccc(OC(C)C)cc2)cc1 [Example C23, 1,6-bis(4-isopropoxyphenyl)-1H-benzo[d][1,2,3]triazol-5-amine] | 6.72 | 0.53 | 0.29 |  |  |  |  | 43000 | 0.96 | > 10000 |  |  |  |  |
| Cc1nc2ncc(-c3ccc(C(C)(C)O)cc3)n2cc1-c1ccc(OC(C)C)cc1 [Example D29, 2-(4-(6-(4-isopropoxphenyl)-7-methylimidazo[1,2-a]pyrimidin-3-yl)phenyl)propan-2-ol] | 1.84 | 0.87 | 1.03 |  |  |  |  | 42100 | 1.27 | > 10000 |  |  |  |  |
| CC(C)Oc1ccc(-c2cc3c(cc2F)nnn3-c2ccc(OC(C)C)cc2)cc1 [Example C13, 5-fluoro-1,6-bis(4-isopropoxyphenyl)-1H-benzo[d][1,2,3]triazole] | 4 | 0.66 | 0.27 |  |  |  |  | > 100000 | 1.53 | > 10000 |  | 79.5 |  |  |
| Cc1nc2ncc(-c3ccc(OC(C)(C)C)cc3)n2cc1-c1ccc(OC(C)C)cc1 [Example D28, 3-(4-(tert-butoxy)phenyl)-6-(4-isopropoxyphenyl)-7-methylimidazo[1,2-a]pyrimidine] | 0.3 | 0.31 | 0.4 |  |  |  |  | 12300 | 0.15 | > 10000 |  |  |  |  |
| Cc1cc2ncc(-c3ccc(OC(C)C)cc3)n2cc1-c1ccc(C(C)(C)O)cc1 [Example B5, 2-(4-(3-(4-isopropoxyphenyl)-7-methylimidazo[1,2-a]pyridin-6-yl)phenyl)propan-2-ol] | 0.53 | 0.16 | 0.18 | 0.1 |  |  |  | 3870 | 0.16 | > 10000 | 16.4 | 86.7 | 7.4 | 0.88 |
| CC(C)Oc1ccc(-c2cc3c(cc2C(=O)O)nnn3-c2ccc(OC(C)C)cc2)cc1 [Example C20, 1,6-bis(4-isopropoxyphenyl)-1H-benzo[d][1,2,3]triazole-5-carboxylic acid] | > 25 | > 25 | > 25 |  |  |  |  |  | > 25 | > 10000 |  |  |  |  |
| Cc1c(-c2ccc(OC(C)C)cc2)ccc2nnn(-c3ccc(OC(C)C)cc3)c12 [Example C14, 1,6-bis(4-isopropoxyphenyl)-7-methyl-1H-benzo[d][1,2,3]triazole] | 2.44 | 0.28 | 0.17 |  |  |  |  | > 100000 | 4.7 | > 10000 | >95 | >95 | >95 |  |
| COC(=O)c1cc2nnn(-c3ccc(OC(C)C)cc3)c2cc1-c1ccc(OC(C)C)cc1 [Example C10, methyl 1,6-bis(4-isopropoxyphenyl)-1H-benzo[d][1,2,3]triazole-5-carboxylate] | 20.6 | 4.05 | 11 |  |  |  |  | > 100000 | 12.3 | > 10000 |  |  |  |  |
